Source: article PMC11945486, “TAS1R2/TAS1R3 Single-Nucleotide Polymorphisms Affect Sweet Taste Receptor Activation by Sweeteners: The SWEET Project” (Nutrients, 2025)
No end group written: not given here.

T1: human TAS1R2-P21L/TAS1R3-WT (Homo sapiens, UniProt Q7RTX0+Q8TE23, P21L)
T1 construct: expressed in transfected cells; host or cells: HEK293T-Gα16gust44
T1 sequence (Q8TE23 20-839 P21L): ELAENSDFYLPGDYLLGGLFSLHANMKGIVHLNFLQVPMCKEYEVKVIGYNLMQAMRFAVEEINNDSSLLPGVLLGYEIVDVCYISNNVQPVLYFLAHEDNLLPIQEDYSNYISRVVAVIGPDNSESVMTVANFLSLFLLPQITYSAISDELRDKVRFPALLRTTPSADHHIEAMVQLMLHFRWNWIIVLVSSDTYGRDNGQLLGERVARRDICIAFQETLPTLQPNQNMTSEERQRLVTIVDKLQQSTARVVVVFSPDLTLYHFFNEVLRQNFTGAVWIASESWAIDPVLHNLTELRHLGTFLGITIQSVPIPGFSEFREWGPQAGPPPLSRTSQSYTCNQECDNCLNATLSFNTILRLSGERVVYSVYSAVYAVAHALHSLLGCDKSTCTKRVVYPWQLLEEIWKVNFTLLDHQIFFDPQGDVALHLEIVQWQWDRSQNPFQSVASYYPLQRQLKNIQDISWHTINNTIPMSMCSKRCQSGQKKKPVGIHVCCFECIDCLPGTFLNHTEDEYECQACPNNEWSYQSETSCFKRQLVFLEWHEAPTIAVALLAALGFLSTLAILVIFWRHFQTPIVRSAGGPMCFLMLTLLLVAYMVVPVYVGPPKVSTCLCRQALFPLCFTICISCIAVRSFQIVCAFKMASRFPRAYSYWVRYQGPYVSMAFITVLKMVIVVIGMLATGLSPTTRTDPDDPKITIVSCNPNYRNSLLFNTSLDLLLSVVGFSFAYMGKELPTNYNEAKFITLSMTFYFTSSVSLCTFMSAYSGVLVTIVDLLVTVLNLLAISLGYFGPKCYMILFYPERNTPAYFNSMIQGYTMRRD
T1 sequence (Q7RTX0 21-852): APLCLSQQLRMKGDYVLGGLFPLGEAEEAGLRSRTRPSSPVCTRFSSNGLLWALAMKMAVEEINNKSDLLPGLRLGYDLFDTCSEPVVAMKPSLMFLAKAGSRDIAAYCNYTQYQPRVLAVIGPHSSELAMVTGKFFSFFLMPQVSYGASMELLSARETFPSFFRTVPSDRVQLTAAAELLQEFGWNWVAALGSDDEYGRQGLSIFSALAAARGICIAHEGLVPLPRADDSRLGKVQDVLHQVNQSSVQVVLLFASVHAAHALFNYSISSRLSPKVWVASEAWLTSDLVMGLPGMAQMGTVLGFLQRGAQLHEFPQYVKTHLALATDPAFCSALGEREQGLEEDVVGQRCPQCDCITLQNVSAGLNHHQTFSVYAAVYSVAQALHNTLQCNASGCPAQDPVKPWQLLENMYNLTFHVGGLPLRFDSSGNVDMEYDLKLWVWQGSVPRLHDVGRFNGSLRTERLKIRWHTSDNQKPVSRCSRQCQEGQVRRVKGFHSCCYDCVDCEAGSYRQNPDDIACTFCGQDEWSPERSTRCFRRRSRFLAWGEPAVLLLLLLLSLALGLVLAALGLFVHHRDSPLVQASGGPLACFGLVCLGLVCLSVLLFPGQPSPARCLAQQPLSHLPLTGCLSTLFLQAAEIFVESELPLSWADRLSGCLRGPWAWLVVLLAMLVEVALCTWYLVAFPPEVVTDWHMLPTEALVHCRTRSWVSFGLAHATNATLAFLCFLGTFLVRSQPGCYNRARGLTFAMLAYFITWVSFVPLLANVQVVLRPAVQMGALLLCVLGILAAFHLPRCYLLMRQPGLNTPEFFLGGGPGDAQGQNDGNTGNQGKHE

B1: thaumatin (protein)
chain: ATFEIVNRCSYTVWAAASKGDAALDAGGRQLNSGESWTINVEPGTKGGKIWARTDCYFDDSGSGICKTGDCGGLLRCKRFGRPPTTLAEFSLNQYGKDYIDISNIKGFNVPMDFSPTTRGCRGVRCAADIVGQCPAKLKAPGGGCNDACTVFQTSEYCCTTGKCGPTEYSRFFKRLCPDAFSYVLDKPTTVTCPGSSNYRVTFCPTA
modifications: Eight disulfides
notes: sweet-tasting plant protein, E957

Target: T1, human TAS1R2-P21L/TAS1R3-WT
Assay: Calcium mobilisation assay, TAS1R2 variant P21L with TAS1R3-WT
Assay type: cell-based
Conditions: for Max ΔF/F0: maximal signal amplitude
Text: The coding sequences for TAS1R2 and TAS1R3 were commercially synthesised, and the human codon was optimised for expression in human cells. The coding sequences of human TAS1R2 and TAS1R3 were subcloned and inserted into the mammalian expression vectors pcDNA6/myc-HisA and pcDNA4/myc-HisA (Invitrogen; Thermo Fisher Scientific; Illkirch, France) between the EcoRI and NotI restriction sites, generating the plasmids pcDNA6-TAS1R2 and pcDNA4-TAS1R3, respectively. To increase protein expression in mammalian cells, an upstream start codon was used, which was a sequence called MAX, corresponding to the QBI SP163 element also described in pcDNA4-HisMax (Invitrogen; Thermo Fisher Scientific; Illkirch, France). To measure the expression level of the receptor by immunohistochemistry, we used the FLAG sequence ([…]) in the C-terminal position, which encodes the FLAG tag epitope. SNP variants of TAS1R2 and TAS1R3 were constructed based on […], respectively, using site-directed mutagenesis (Genewiz; Leipzig, Germany).
The HEK293T cells were kindly provided by Jay P. Slack (Givaudan Flavors Corporation; Cincinnati, OH, USA). HEK293T cells stably transfected with Gα16gust44 [43, 67] were seeded in poly-D-lysine-coated clear-bottom black 96-well plates (0.35 × 10^5 cells/well) in high-glucose DMEM supplemented with 2 mM GlutaMAX, 10% dialysed foetal bovine serum with penicillin/streptomycin and G418 (400 μg/mL) at 37 °C and 6.3% CO2 in a humidified atmosphere as previously reported. […] As a negative control, HEK293T cells were mock-transfected with the empty expression vector. After a further 24 h of incubation, the HEK293T cells were washed with C1 buffer (130 mM NaCl, 5 mM KCl, 10 mM HEPES pH 7.4 and 2 mM CaCl2). The 96-well plates containing the cells were then stimulated with sweet-tasting compounds. […] Different concentration ranges were tested depending on the sweet compound injected. The Ca^2+ changes were expressed as fractional changes in fluorescent light intensity: ΔF/F = (F − F0)/F0, where F was the fluorescent light intensity at each point, and F0 was the value of emitted fluorescent light prior to stimulus application. To calculate dose–response relationships, the changes in fluorescence upon stimulus application were averaged, mock-subtracted and baseline-corrected. The dose–response data obtained were adjusted using a 4-parameter logistic equation. The half-maximal effective concentrations (EC50 values) and maximal signal amplitudes were calculated using SigmaPlot software (version 15.0) (Systat Software; San Jose, CA, USA).
For in vitro calcium mobilisation assay performed on hTAS1R2-SNPs, hTAS1R3-SNPs and mTAS1R3-I60T, 6 to 7 concentrations were tested for each sweet compound, plus buffer alone. All concentration–receptor combinations were measured in duplicate, and each experiment was repeated at least 4 times (8 wells/concentration). Results were expressed for each concentration as ΔF/F mean ± SEM and represented as dose–response curves.

Row | Molecule | EC50 | R1 = Variant EC50/WT EC50 | Max ΔF/F0
1 | CC1=CC(=O)NS(=O)(=O)O1 [Acesulfame K, acesulfame K] | 374 ± 11 µM | 0.5 | 0.24 ± 0.01
2 | O=S(=O)(O)NC1CCCCC1 [Cyclamate, cyclamate] | 2110 ± 55 µM | – | –
3 | C[C@H](CC[C@@H](O[C@@H]1O[C@H](CO[C@@H]2O[C@H](CO)[C@@H](O)[C@H](O)[C@H]2O)[C@@H](O)[C@H](O)[C@H]1O[C@@H]1O[C@H](CO)[C@@H](O)[C@H](O)[C@H]1O)C(C)(C)O)[C@H]1CC[C@@]2(C)[C@@H]3CC=C4[C@@H](CC[C@H](O[C@@H]5O[C@H](CO[C@@H]6O[C@H](CO)[C@@H](O)[C@H](O)[C@H]6O)[C@@H](O)[C@H](O)[C@H]5O)C4(C)C)[C@]3(C)[C@H](O)C[C@]12C [Mogroside V, mogroside V] | 19.9 ± 1.1 µM | 1.2 | 1.18 ± 0.02
4 | COc1ccc(CCC(=O)c2c(O)cc(O[C@@H]3O[C@H](CO)[C@@H](O)[C@H](O)[C@H]3O[C@@H]3O[C@@H](C)[C@H](O)[C@@H](O)[C@H]3O)cc2O)cc1O [NHDC, neohesperidin dihydrochalcone] | 100 ± 5.1 µM | 1.3 | 0.81 ± 0.02
5 | COC(=O)[C@H](Cc1ccccc1)NC(=O)[C@H](CC(=O)O)NCCC(C)(C)C [Neotame] | 0.67 ± 0.16 µM | 0.8 | 0.53 ± 0.04
6 | C=C(C)[C@@H]1CC=C(/C=N/O)CC1 [Perillartine, perillartine] | 26.3 ± 1.1 µM | 1.5 | 1.35 ± 0.03
7 | C=C1C[C@@]23CC[C@H]4[C@@](C)(CCC[C@@]4(C)C(=O)O[C@@H]4O[C@H](CO)[C@@H](O)[C@H](O[C@@H]5O[C@H](CO)[C@@H](O)[C@H](O)[C@H]5O)[C@H]4O[C@@H]4O[C@H](CO)[C@@H](O)[C@H](O)[C@H]4O)[C@@H]2CC[C@]1(O[C@@H]1O[C@H](CO)[C@@H](O)[C@H](O[C@@H]2O[C@H](CO)[C@@H](O)[C@H](O)[C@H]2O)[C@H]1O[C@@H]1O[C@H](CO)[C@@H](O)[C@H](O)[C@H]1O)C3 [Rebaudioside M, rebaudioside M] | 19.5 ± 0.9 µM | 1.2 | 0.99 ± 0.02
8 | OC[C@H]1O[C@H](O[C@]2(CCl)O[C@H](CCl)[C@@H](O)[C@@H]2O)[C@H](O)[C@@H](O)[C@H]1Cl [Sucralose] | 80 ± 13 µM | 0.9 | 0.50 ± 0.03
9 | brazzein (QDKCKKVYENYPVSKCQLANQCNYDCKLDKHARSGECFYDEKRNLQCICDYCEY; ends and bridges not checked; cysteine pairing not given here; UniProt P56552 1-54, looked up) [sweet-tasting protein obtained by recombinant production using the yeast Pichia pastoris] | – | 1.1 | 1.09 ± 0.01
10 | thaumatin | – | 0.4 | 0.19 ± 0.04
11 | B1 | 3.3 µM | – | –
